{"source": "patent US5175283A", "about": "“Azetidin-2-one derivatives as serine protease inhibitors” (Bristol-Myers Squibb Company, priority 1992, dated 1992)", "key": {"human α-thrombin [1]": {"biological_target": "T1, human α-thrombin (Homo sapiens, UniProt P00734)", "T1 construct": "purified human α-thrombin dissolved in thrombin assay buffer", "assay": "Enzyme assay for the inhibition of thrombin (s-2238 substrate)", "type": "biochemical", "experimental": "1. Enzyme Assays for the Inhibition of Thrombin The following reagents were used in these assays: Thrombin assay buffer: 145 mM NaCl, 5 mM KCl, 30 mM N-2-hydroxyethyl piperazine-N'-2-ethanesulfonic acid, pH 7.4, 1 mg/ml polyethylene glycol (PEG-8000). 3 mM D-Phe-Pip-Arg-p-nitroanilide (s-2238) in H2 O. 3 U/ml purified human α-thrombin dissolved in thrombin assay buffer. Inhibitors to be tested were dissolved in H2 O, methanol, or DMSO just prior to use. Assay Procedure To each well in a 96-well microtiter plate, 270 μl of assay buffer was added. Human α-thrombin (10 μl of 3 U/ml) was added, then 10 μl of inhibitor were added and mixed. The samples were incubated at room temperature for a defined period of time (3 min for initial IC50 determinations). The enzymic reaction was started with 10 μl of 3 mM s-2238 substrate and continued at room temperature. The change in optical density was measured at 405 nm. A kinetic microplate reader (Molecular Devices Corporation Vmax) was used to measure the change in optical density over time. Results are reported in Table 1 as IC50 values, i.e., the drug concentration in mole/liter which caused 50% inhibition of the enzyme activity (after incubation of the drug with the enzyme for 3 min). Alternatively, results are also reported in Table 1 expressed as k2 /ki which is the second order rate constant in per mole per minute for inactivation time of the enzyme [Kitz, et al., J. Biol. Chem., 237, 3245 (1962)]."}, "[2]": {"biological_target": "T2, bovine pancreatic trypsin (Bos taurus, UniProt P00760)", "T2 construct": "purified bovine pancreatic trypsin dissolved in trypsin assay buffer", "T2 sequence (P00760 24-246)": "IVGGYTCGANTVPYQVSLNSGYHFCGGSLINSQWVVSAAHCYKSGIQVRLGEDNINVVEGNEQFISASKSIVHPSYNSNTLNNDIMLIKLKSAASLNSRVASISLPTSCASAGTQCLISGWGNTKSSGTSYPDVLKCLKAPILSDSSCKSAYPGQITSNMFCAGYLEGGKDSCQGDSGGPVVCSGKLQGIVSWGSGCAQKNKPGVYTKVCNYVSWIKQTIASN", "assay": "Enzyme assay for the inhibition of trypsin (Z-Val-Gly-Arg-pNA substrate)", "type": "biochemical", "conditions": "3 min incubation of drug with enzyme, room temperature, pH 8.0; read-out: Trypsin IC50", "experimental": "2. Enzyme Assays for the Inhibition of Trypsin\n(§1) The following reagents were used in these assays:\nTrypsin assay buffer: 2 mM CaCl2, 50 mM Tris/Cl pH 8.0.\n3 mM Z-Val-Gly-Arg-pNA (Chromzyme TRy) dissolved in H2 O.\n6 μg/ml of purified bovine pancreatic trypsin dissolved in trypsin assay buffer.\nInhibitors to be tested were dissolved in H2 O, methanol or DMSO just prior to use.\nTo each well in a 96-well microtiter plate, 270 μl of assay buffer was added. Bovine trypsin (10 μl of 6 μg/ml) was added. Inhibitor (10 μl ) was added, mixed, and then incubated at room temperature for 3 min. The enzymic reaction was started with 10 μl of 3 mM Z-Val-Gly-Arg-pNA substrate. The change in optical density was measured at 405 nm at room temperature. A kinetic microplate reader (Molecular Devices Corporation Vmax) was used to measure the change in optical density over time.\nResults are reported in Table 1 as IC50 values, i.e., the drug concentration in mole/liter which caused 50% inhibition of the enzyme activity (after incubation of the drug with the enzyme for 3 min)."}, "human α-thrombin [3]": {"biological_target": "T1, human α-thrombin", "assay": "Concentration required for doubling thrombin clotting time in human plasma", "type": "biochemical", "conditions": "human citrated plasma, 10 U/ml human thrombin; read-out: ED50, drug concentration required to double clotting time", "experimental": "Procedure for Determining the Concentration Required for Doubling Thrombin Clotting Time--Clotting Time Assays The following reagents were used in these assays: Owren's Veronal Buffer: 125 mM NaCl, 28.4 mM sodium barbital, pH 7.35. Human citrated plasma obtained from human volunteers or citrated plasma obtained from IP-dosed animals (prepared as described below). 10 NIH Units/ml human α-thrombin in thrombin buffer for use with human plasma. […] The blood was centrifuged at […] (480×g) for 15 min at room temperature (using a Sorvall RT 6000B centrifuge). The plasma was removed, pooled, and aliquoted into small tubes which were stored frozen for later use. Clotting Time Measurement Clotting times were determined by pipetting 0.1 ml of Owren's buffer (pre-warmed 37° C.) and 0.1 ml of human or rat plasma into yellow sample cuvettes. For studies with human plasma 10 U/ml human thrombin (10 ml) was placed in the reservoir assembly station of the MLA 700. (Medical Laboratory Automation, Electra 700 Reservoir Assembly). For rat studies, the human thrombin concentration was 25 U/ml. The cuvettes were vortexed and then placed on the MLA 700 sample wheel. The coagulation timer (MLA 700) automatically dispenses 0.1 ml human thrombin into the sample in each cuvette. Detection of the fibrin clot was determined optically by the MLA 700. Studies were performed to determine the concentration of drug which caused a doubling of the clotting time in human plasma. From standard curves of thrombin activity added to the sample versus the clotting time, the concentration of drug which caused a doubling of the thrombin clotting time corresponded to inhibition of approximately 1/2 of the added thrombin clotting activity. Results are reported in Table 1 as ED50 values, i.e., the drug concentration required to double clotting time."}, "[4]": {"tested_on": "Thrombin Induced Clotting Time", "assay": "Thrombin induced clotting time ex vivo in plasma of i.p. dosed rats", "conditions": "rat, 50 mg/kg i.p.; for Thrombin Induced Clotting Time (1:4 Control Plasma): plasma diluted 1:4 with control plasma; for Thrombin Induced Clotting Time, terminated samples / Thrombin Induced Clotting Time: undiluted plasma, per animal", "experimental": "Procedure for Determining the Concentration Required for Doubling Thrombin Clotting Time--Clotting Time Assays\nas §1\nOwren's Veronal Buffer: 125 mM NaCl, 28.4 mM sodium barbital, pH 7.35.\nHuman citrated plasma obtained from human volunteers or citrated plasma obtained from IP-dosed animals (prepared as described below).\n25 NIH Units/ml human α-thrombin in thrombin buffer for use with rat plasma.\nTest compound was prepared just prior to dosing. Routinely the drugs are dissolved in water. Animals were dosed by i.p. injection.\nAfter the appropriate time period, the animals were ether-anesthetized, and blood was drawn by cardiac puncture using 333 μl of 3.8% sodium citrate per 3 ml blood. After all of the samples were obtained, the tubes were centrifuged at 1,500 rpm for 15 min as described for the human blood samples.\nClotting Time Measurement\nClotting times were determined by pipetting 0.1 ml of Owren's buffer (pre-warmed 37° C.) and 0.1 ml of human or rat plasma into yellow sample cuvettes. For studies with human plasma 10 U/ml human thrombin (10 ml) was placed in the reservoir assembly station of the MLA 700. (Medical Laboratory Automation, Electra 700 Reservoir Assembly). For rat studies, the human thrombin concentration was 25 U/ml. The cuvettes were vortexed and then placed on the MLA 700 sample wheel. The coagulation timer (MLA 700) automatically dispenses 0.1 ml human thrombin into the sample in each cuvette. Detection of the fibrin clot was determined optically by the MLA 700.\nIn separate studies, two compounds, Compound XIX and Compound XI, were dosed 50 mg/kg I.P. to three rats in each study group. […] \"Term\" indicates \"terminated sample\" where a clot was unable to form after approximately 99 seconds. When this occurred, the animal plasma was diluted 1: 1 with control rat plasma and the sample tested again. If need, the animal plasma was diluted 1:4 and tested again."}}, "note": "“And” between values parts separate entries of the source, which are not always exact repeats. Equal entries are not always repeated. Structures can show the parent of a compound that is named as a salt.", "data": [{"smiles": "CC(=O)N1C(=O)[C@@H](CCCNC(=N)N)[C@@H]1C(=O)N1CCCCC1", "note": "(relative stereo) [Compound XI, trans-4-(1-Piperidinocarbonyl)-3-guanidinooropyl-1-acetyl-2azetidinone hydrochloride salt]", "values": [{"measurement": "IC50", "setting": "human α-thrombin [1]; 3 min incubation of drug with enzyme, room temperature", "result": 90, "unit": "nM"}, {"measurement": "Thrombin k2 /ki (second order rate constant for inactivation of the enzyme)", "setting": "human α-thrombin [1]; human α-thrombin, s-2238, pH 7.4, room temperature", "result": "4.2 × 10^5 m^-1 min^-1"}, {"measurement": "IC50", "setting": "[2]", "result": 9, "unit": "nM"}, {"measurement": "IC (2-fold clotting time)", "setting": "human α-thrombin [3]", "result": 0.5, "unit": "µM"}, {"measurement": "Thrombin Induced Clotting Time (1:1 Control Plasma), terminated samples", "setting": "[4]; 0.5 hr. post dose, plasma diluted 1:1 with control rat plasma", "result": "term. (\"terminated sample\" where a clot was unable to form after approximately 99 seconds)"}, {"measurement": "Thrombin Induced Clotting Time (1:4 Control Plasma)", "setting": "[4]; 0.5 hr. post dose, hydrochloride salt, 50 mg/kg, in s", "result": "18.0 and 17.7 and 32.4"}, {"measurement": "Thrombin Induced Clotting Time, terminated samples", "setting": "[4]; 0.5 hr. post dose", "result": "term. (\"terminated sample\" where a clot was unable to form after approximately 99 seconds)"}, {"measurement": "Thrombin Induced Clotting Time (1:1 Control Plasma)", "setting": "[4]; 2 hr. post dose, plasma diluted 1:1 with control rat plasma, in s", "result": 45.7}, {"measurement": "Thrombin Induced Clotting Time (1:4 Control Plasma)", "setting": "[4]; 2 hr. post dose, in s", "result": 14.0}, {"measurement": "Thrombin Induced Clotting Time, terminated samples", "setting": "[4]; 2 hr. post dose", "result": "term. (\"terminated sample\" where a clot was unable to form after approximately 99 seconds)"}, {"measurement": "Thrombin Induced Clotting Time", "setting": "[4]; 2 hr. post dose, hydrochloride salt, 50 mg/kg", "result": "17.2 s and 14.7 s"}, {"measurement": "Thrombin Induced Clotting Time", "setting": "[4]; 5 hr. post dose, hydrochloride salt, 50 mg/kg", "result": "13.1 s and 11.4 s and 11.5 s"}, {"measurement": "Clotting time ex vivo, result in words", "setting": "[4]; three rats per group", "result": "prolonged clotting time"}]}]}
